From PubChem BioAssay AID330 (DTP/NCI, 2004)
Several values for one entry are separate records, joined by “and”; a condition that tells them apart may be missing. Equal values may be shown once. Inconclusive results and toxic doses are left out.

Test system: P388 leukemia ip, CD2F1 mice, survival T/C
Test: NCI In Vivo Anticancer Drug Screen. Data for tumor model P388 Leukemia (intraperitoneal) in CD2F1 (CDF1) mice
Conditions: endpoint: median survival time, higher = longer survival
Method in brief: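 Mice carrying the transplanted tumor received test compound or vehicle. Survival was recorded in each group, and the value is the treated-group measurement divided by that of the vehicle-treated control group.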

[1] = dose: 100.0 mg/kg/injection, schedule: Q04DX003 (ip), vehicle: saline with Tween-80
[2] = dose: 200.0 mg/kg/injection, schedule: Q04DX003 (ip), vehicle: saline with Tween-80
[3] = dose: 50.0 mg/kg/injection, schedule: Q01DX009 (ip), vehicle: saline with Tween-80
[4] = dose: 100.0 mg/kg/injection, schedule: Q01DX009 (ip), vehicle: saline with Tween-80
[5] = dose: 200.0 mg/kg/injection, schedule: Q01DX009 (ip), vehicle: saline with Tween-80
[6] = dose: 100.0 mg/kg/injection, schedule: Q04DX002 (ip), vehicle: saline with Tween-80
[7] = dose: 25.0 mg/kg/injection, schedule: Q04DX003 (ip), vehicle: saline

`CCC(C(N)=O)C1=CCCCC1` (stereo not drawn) was tested, and the T/C [1] was 104 % of control, the T/C [2] was 100 % of control and the T/C (dose: 400.0 mg/kg/injection, schedule: Q04DX003 (ip), vehicle: saline with Tween-80) was 100 % of control.
With `COc1ccc(COCc2ccc(OC)c(O)c2)cc1O` the T/C [3] was 101 % of control and the T/C [4] was 99 % of control.
With `O=C(NC(=O)C(F)(F)F)Nc1cc(F)ccc1F` the T/C [3] was 99 % of control, the T/C [4] was 105 % of control and the T/C [5] was 107 % of control.
With `CCOC(=O)c1ccc(NC(=O)N2CC(C)OC(C)C2)cc1` (stereo not drawn) the T/C [3] was 87 % of control, the T/C [4] was 97 % of control and the T/C [5] was 97 % of control.
In the case of `C=C1C(=O)O[C@@H]2C(=O)[C@@H](C)[C@@H]3C=CC(=O)[C@@]3(C)[C@@H](OC(=O)/C(C)=C\C)[C@H]12`, the T/C (dose: 2.0 mg/kg/injection, schedule: Q01DX009 (ip), vehicle: saline + alcohol) is reported as 107 % of control, the T/C (dose: 4.0 mg/kg/injection, schedule: Q01DX009 (ip), vehicle: saline + alcohol) is reported as 99 % of control and the T/C (dose: 8.0 mg/kg/injection, schedule: Q01DX009 (ip), vehicle: saline + alcohol) is reported as 109 % of control and 123 % of control. The T/C (dose: 16.0 mg/kg/injection, schedule: Q01DX009 (ip), vehicle: saline + alcohol) was 116 % of control.
With `CCCCCCCC/C=C\CCCCCCCCN1CC(C(=O)[O][Pb]([CH2]C)([CH2]C)[CH2]C)CC1=O` (stereo not drawn) the T/C (dose: 0.75 mg/kg/injection, schedule: Q01DX009 (ip), vehicle: saline with Tween-80) was 105 % of control, the T/C (dose: 1.5 mg/kg/injection, schedule: Q01DX009 (ip), vehicle: saline with Tween-80) was 105 % of control and the T/C (dose: 6.0 mg/kg/injection, schedule: Q01DX009 (ip), vehicle: saline with Tween-80) was 115 % of control.
`Cc1cc2c(cc1C)NC1C(=O)C(c3ccccc3Cl)OC1=N2` (stereo not drawn) was tested, and the T/C (dose: 50.0 mg/kg/injection, schedule: Q01DX005 (ip), vehicle: Klucel + Tween-80) was 92 % of control, the T/C (dose: 100.0 mg/kg/injection, schedule: Q01DX005 (ip), vehicle: Klucel + Tween-80) was 94 % of control and the T/C (dose: 200.0 mg/kg/injection, schedule: Q01DX005 (ip), vehicle: Klucel + Tween-80) was 91 % of control.
With `CCCCOC(=S)Nc1ccccc1` the T/C (dose: 50.0 mg/kg/injection, schedule: Q01DX009 (ip), vehicle: saline + Tween-80 + alcohol) was 99 % of control, the T/C [3] was 104 % of control and the T/C (dose: 100.0 mg/kg/injection, schedule: Q01DX009 (ip), vehicle: saline + Tween-80 + alcohol) was 108 % of control. The T/C [4] was 100 % of control, the T/C (dose: 200.0 mg/kg/injection, schedule: Q01DX009 (ip), vehicle: saline + Tween-80 + alcohol) was 98 % of control and the T/C [5] was 98 % of control. For the same molecule, the T/C (dose: 400.0 mg/kg/injection, schedule: Q01DX009 (ip), vehicle: saline + Tween-80 + alcohol) was 97 % of control and the T/C (dose: 400.0 mg/kg/injection, schedule: Q01DX009 (ip), vehicle: saline with Tween-80) was 110 % of control.
`C=CCC1CCC(=O)NC1=O` (stereo not drawn) was tested, and the T/C (dose: 50.0 mg/kg/injection, schedule: Q04DX002 (ip), vehicle: saline with Tween-80) was 102 % of control, the T/C [6] was 102 % of control and the T/C (dose: 200.0 mg/kg/injection, schedule: Q04DX002 (ip), vehicle: saline with Tween-80) was 100 % of control. For the same molecule, the T/C (dose: 400.0 mg/kg/injection, schedule: Q04DX002 (ip), vehicle: saline with Tween-80) was 112 % of control.
For `CCOC(=O)/C(=C/c1ncnc2nc[nH]c12)C(F)(F)C(=O)OCC`, the T/C [7] was 97 % of control, the T/C (dose: 50.0 mg/kg/injection, schedule: Q04DX003 (ip), vehicle: saline) was 100 % of control and the T/C (dose: 100.0 mg/kg/injection, schedule: Q04DX003 (ip), vehicle: saline) was 99 % of control.
With `COC(=O)c1[c]([Sn]([CH3])([CH3])[CH3])n[n]([Pb]([CH3])([CH3])[CH3])c1C(=O)OC` the T/C (dose: 6.25 mg/kg/injection, schedule: Q04DX003 (ip), vehicle: saline) was 95 % of control, the T/C (dose: 12.5 mg/kg/injection, schedule: Q04DX003 (ip), vehicle: saline) was 95 % of control and the T/C [7] was 95 % of control.
For `NNC(=O)c1oc2ccccc2c1CN(CCO)CCO`, the T/C (dose: 50.0 mg/kg/injection, schedule: Q01DX005 (ip), vehicle: saline with Tween-80) was 102 % of control, the T/C (dose: 100.0 mg/kg/injection, schedule: Q01DX005 (ip), vehicle: saline with Tween-80) was 98 % of control and the T/C (dose: 200.0 mg/kg/injection, schedule: Q01DX005 (ip), vehicle: saline with Tween-80) was 107 % of control.
With `O=C(Nc1ccc(N=Nc2ccc(S(=O)(=O)O)cc2)cc1)c1ccc(N=Nc2cc(S(=O)(=O)O)c3ccccc3c2O)cc1` the T/C (dose: 50.0 mg/kg/injection, schedule: Q01DX005 (ip), vehicle: saline) was 110 % of control and the T/C (dose: 100.0 mg/kg/injection, schedule: Q01DX005 (ip), vehicle: saline) was 104 % of control.
In the case of `C=C1C(=O)OC2C=C(C)CC3C=C(CCC=C(C)CCC12)C(=O)O3` (stereo not drawn), the T/C (dose: 50.0 mg/kg/injection, schedule: Q04DX003 (ip), vehicle: saline with Tween-80) is reported as 102 % of control, the T/C [1] is reported as 104 % of control and the T/C [2] is reported as 115 % of control.
In the case of `CSCNc1ncnc2c1ncn2C1OC(CO)C(O)C1O` (stereo not drawn), the T/C [6] is reported as 120 % of control.
For `COc1cccc2c1C(=O)c1c(O)c3c(c(O)c1C2=O)C[C@@](O)(C(=O)CO)C[C@@H]3OC1CC(N)C(OC)C(C)O1` (stereo partly drawn), the T/C (dose: 0.39 mg/kg/injection, schedule: Q01DX009 (ip), vehicle: saline) was 201 % of control, the T/C (dose: 0.65 mg/kg/injection, schedule: Q01DX009 (ip), vehicle: saline) was 201 % of control and the T/C (dose: 1.08 mg/kg/injection, schedule: Q01DX009 (ip), vehicle: saline) was 324 % of control. The T/C (dose: 1.08 mg/kg/injection, schedule: Q04DX003 (ip), vehicle: saline) was 190 % of control, the T/C (dose: 1.8 mg/kg/injection, schedule: Q04DX003 (ip), vehicle: saline) was 263 % of control and the T/C (dose: 3.0 mg/kg/injection, schedule: Q04DX003 (ip), vehicle: saline) was 257 % of control. For the same molecule, the T/C (dose: 3.13 mg/kg/injection, schedule: Q04DX003 (ip), vehicle: water) was 172 % of control, the T/C (dose: 5.0 mg/kg/injection, schedule: Q04DX003 (ip), vehicle: saline) was 163 % of control and 172 % of control and the T/C (dose: 12.5 mg/kg/injection, schedule: Q04DX003 (ip), vehicle: water) was 90 % of control.
In the case of `CC([NH-])CC(C)[NH-].[I][Pt+2][I]` (stereo not drawn), the T/C (dose: 12.5 mg/kg/injection, schedule: Q04DX002 (ip), vehicle: saline with Tween-80) is reported as 169 % of control and 150 % of control and the T/C (dose: 25.0 mg/kg/injection, schedule: Q04DX002 (ip), vehicle: saline with Tween-80) is reported as 163 % of control and 157 % of control.
For `[F][Sn]([F])([c]1ccccc1)[c]1ccccc1`, the T/C (dose: 1.56 mg/kg/injection, schedule: Q01DX009 (ip), vehicle: Klucel (hydroxypropylcellulose) (HPC)) was 196 % of control.
`C=C(C)OC1NC(=O)Oc2ccccc21` (stereo not drawn) was tested, and the T/C (dose: 60.0 mg/kg/injection, schedule: Q01DX005 (ip), vehicle: saline with Tween-80) was 98 % of control, the T/C (dose: 120.0 mg/kg/injection, schedule: Q01DX005 (ip), vehicle: saline with Tween-80) was 109 % of control and the T/C (dose: 240.0 mg/kg/injection, schedule: Q01DX005 (ip), vehicle: saline with Tween-80) was 100 % of control.
